Biological target: T1, recombinant human ASK1 protein (Homo sapiens, UniProt Q99683)
T1 sequence (Q99683 1-1374): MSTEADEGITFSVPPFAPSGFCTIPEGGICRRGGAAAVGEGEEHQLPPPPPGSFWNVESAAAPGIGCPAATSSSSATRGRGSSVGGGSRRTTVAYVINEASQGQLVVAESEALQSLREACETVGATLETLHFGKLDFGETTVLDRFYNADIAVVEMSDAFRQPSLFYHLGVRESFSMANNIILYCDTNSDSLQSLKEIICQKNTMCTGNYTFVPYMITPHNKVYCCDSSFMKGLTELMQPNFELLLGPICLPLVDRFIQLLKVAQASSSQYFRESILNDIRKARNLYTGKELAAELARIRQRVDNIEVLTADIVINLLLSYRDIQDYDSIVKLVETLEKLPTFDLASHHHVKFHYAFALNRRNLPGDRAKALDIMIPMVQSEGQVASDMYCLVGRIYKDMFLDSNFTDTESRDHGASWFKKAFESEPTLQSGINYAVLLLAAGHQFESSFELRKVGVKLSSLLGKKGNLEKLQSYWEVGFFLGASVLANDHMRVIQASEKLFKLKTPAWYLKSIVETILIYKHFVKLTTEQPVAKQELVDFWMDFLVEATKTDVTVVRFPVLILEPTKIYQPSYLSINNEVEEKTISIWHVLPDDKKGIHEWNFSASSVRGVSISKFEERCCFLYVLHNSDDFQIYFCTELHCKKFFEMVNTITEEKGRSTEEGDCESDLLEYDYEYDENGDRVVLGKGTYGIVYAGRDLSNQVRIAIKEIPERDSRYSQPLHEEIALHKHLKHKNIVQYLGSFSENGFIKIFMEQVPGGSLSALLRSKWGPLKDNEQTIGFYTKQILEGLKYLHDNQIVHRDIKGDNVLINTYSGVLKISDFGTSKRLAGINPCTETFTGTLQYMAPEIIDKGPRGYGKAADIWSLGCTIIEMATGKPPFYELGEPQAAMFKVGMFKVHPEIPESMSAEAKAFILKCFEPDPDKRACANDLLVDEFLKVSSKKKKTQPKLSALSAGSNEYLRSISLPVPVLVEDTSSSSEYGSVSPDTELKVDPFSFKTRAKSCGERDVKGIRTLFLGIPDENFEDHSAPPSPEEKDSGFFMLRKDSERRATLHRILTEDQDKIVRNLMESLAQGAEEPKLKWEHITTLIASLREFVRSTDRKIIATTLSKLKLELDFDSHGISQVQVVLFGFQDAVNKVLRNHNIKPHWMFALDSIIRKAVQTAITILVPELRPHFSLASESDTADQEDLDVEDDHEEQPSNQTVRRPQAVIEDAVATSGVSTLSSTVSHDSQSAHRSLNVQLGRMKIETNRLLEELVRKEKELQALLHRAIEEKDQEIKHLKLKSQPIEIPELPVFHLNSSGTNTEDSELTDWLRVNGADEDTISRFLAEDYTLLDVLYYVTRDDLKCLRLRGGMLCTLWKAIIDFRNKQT
Experiment: Evaluation of ASK1 inhibition activity ([gamma-33P]-ATP, scintillation counting)
Type: biochemical
Conditions: for remaining activity at 0.5 µM: activity of group without compound set at 100%, read-out: Remaining kinase activity (%) at 0.5 uM
Protocol: The recombinant human ASK1 protein was initiated by adding a mixture of Mg/ATP to the reaction solution (8 mM MOPS PH 7.0, 0.2 mM EDTA, 0.33 mg/mL myelin basic protein, 10 mM Mg Acetate and [gamma-33P]-ATP), and the reaction was terminated by adding 0.5% phosphoric acid after 40 min at room temperature.

Structure (SMILES) | remaining activity at 0.5 µM [%] | IC50 [nM]
CCOc1cc(C)c(-n2cnc(C3CC3)c2)cc1C(=O)Nc1cccc(-n2nnc3c2CCCC3)n1 [Example 11, 5-(4-cyclopropyl-1H-imidazol-1-yl)-2-ethoxy-4-methyl-N-(6-(4,5,6,7-tetrahydro-1H-benzo[d][1,2,3]triazol-1-yl)pyridin-2-yl)benzamide] | 29 | 
Cc1cc(F)c(C(=O)Nc2cccc(-n3nnc4c3CCCCCC4)n2)cc1-n1cnc(C2CC2)c1 [Example 5, 5-(4-cyclopropyl-1H-imidazole-1-yl)-2-fluoro-N-(6-(4,5,6,7,8,9-hexahydro-1H-cycloocta[d][1,2,3]triazole-1-yl)pyridine-2-yl)-4-methylbenzamide] |  | 198
Cc1cc(F)c(C(=O)Nc2cccc(-n3nnc4ccccc43)n2)cc1-n1cnc(C2CC2)c1 [Example 1, N-(6-(1H-benzo[d][1,2,3]triazole-1-yl)pyridine-2-yl)-5-(4-cyclopropyl-1H-imidazole-1-yl)-2-fluoro-4-methylbenzamide] | 14 | 235
O=C(Nc1cccc(-n2nnc3c2CCCC3)n1)c1cc(-n2cnc(C3CC3)c2)ccc1OC(F)(F)F [Example 25, 5-(4-cyclopropyl-1H-imidazol-1-yl)-N-(6-(4,5,6,7-tetrahydro-1H-benzo[d][1,2,3]triazol-1-yl)pyridin-2-yl)-2-(trifluoromethoxy)benzamide] | 14 | 
O=C(Nc1cccc(-n2nnc3c2CCCC3)n1)c1cc(-n2cnc(C3CC3)c2)ccc1OC(F)F [Example 27] | 4 | 
O=C(Nc1cccc(-n2nnc3c2CCC3)n1)c1cc(-n2cnc(C3CC3)c2)ccc1OC(F)(F)F [Example 24, 5-(4-cyclopropyl-1H-imidazol-1-yl)-N-(6-(5,6-dihydrocyclopenta[d][1,2,3]triazol-1 (4H)-yl)pyridin-2-yl)-2-(trifluoromethoxy)benzamide] | 5 | 
CCOc1cc(C)c(-n2cnc(C3CC3)c2)cc1C(=O)Nc1cccc(-n2nnc3c2CCC3)n1 [Example 10, 5-(4-cyclopropyl-1H-imidazol-1-yl)-N-(6-(5,6-dihydrocyclopenta[d][1,2,3]triazol-1 (4H)-yl)pyridin-2-yl)-2-ethoxy-4-methylbenzamide] | 14 | 
CCOc1ccc(-n2cnc(C3CC3)c2)cc1C(=O)Nc1cccc(-n2nnc3c2CCC3)n1 [Example 16, 5-(4-cyclopropyl-1H-imidazol-1-yl)-N-(6-(5,6-dihydrocyclopenta[d][1,2,3]triazol-1 (4H)-yl)pyridin-2-yl)-2-ethoxybenzamide] | 11 | 
O=C(Nc1cccc(-n2nnc3c2CCC3)n1)c1cc(-n2cnc(C3CC3)c2)ccc1OCC(F)(F)F [Example 20, 5-(4-cyclopropyl-1H-imidazol-1-yl)-N-(6-(5,6-dihydrocyclopenta[d][1,2,3]triazol-1 (4H)-yl)pyridin-2-yl)-2-(2,2,2-trifluoroethoxy)benzamide] | 3 | 
CC(C)Oc1ccc(-n2cnc(C3CC3)c2)cc1C(=O)Nc1cccc(-n2nnc3c2CCCC3)n1 [Example 19, 5-(4-cyclopropyl-1H-imidazol-1-yl)-2-isopropoxy-N-(6-(4,5,6,7-tetrahydro-1H-benzo[d][1,2,3]triazol-1-yl)pyridin-2-yl)benzamide] | 9 | 
O=C(Nc1cccc(-n2nnc3c2CCC3)n1)c1cc(-n2cnc(C3CC3)c2)ccc1OC(F)F [Example 26, 5-(4-cyclopropyl-1H-imidazol-1-yl)-2-(difluoromethoxy)-N-(6-(5,6-dihydrocyclopenta[d][1,2,3]triazol-1 (4H)-yl)pyridin-2-yl)benzamide] | 1 | 
COc1ccc(-n2cnc(C3CC3)c2)cc1C(=O)Nc1cccc(-n2nnc3c2CCCC3)n1 [Example 7, 5-(4-cyclopropyl-1H-imidazol-1-yl)-2-methoxy-N-(6-(4,5,6,7-tetrahydro-1H-benzo[d][1,2,3]triazol-1-yl)pyridin-2-yl)benzamide] | 2 | 
O=C(Nc1cccc(-n2nnc3c2CCC3)n1)c1cc(-n2cnc(C3CC3)c2)ccc1OC1CC1 [Example 22, 2-cyclopropoxy-5-(4-cyclopropyl-1H-imidazol-1-yl)-N-(6-(5,6-dihydrocyclopenta[d][1,2,3]triazol-1 (4H)-yl)pyridin-2-yl)benzamide] | 24 | 
Cc1cc(OC(C)C)c(C(=O)Nc2cccc(-n3nnc4c3CCCC4)n2)cc1-n1cnc(C2CC2)c1 [Example 13, 5-(4-cyclopropyl-1H-imidazol-1-yl)-2-isopropoxy-4-methyl-N-(6-(4,5,6,7-tetrahydro-1H-benzo[d][1,2,3]triazol-1-yl)pyridin-2-yl)benzamide] | 9 | 
CC(C)Oc1ccc(-n2cnc(C3CC3)c2)cc1C(=O)Nc1cccc(-n2nnc3c2CCC3)n1 [Example 18, 5-(4-cyclopropyl-1H-imidazol-1-yl)-N-(6-(5,6-dihydrocyclopenta[d][1,2,3]triazol-1 (4H)-yl)pyridin-2-yl)-2-isopropoxybenzamide] | 11 | 
COc1ccc(-n2cnc(C3CC3)c2)cc1C(=O)Nc1cccc(-n2nnc3c2CCC3)n1 [Example 6, 5-(4-cyclopropyl-1H-imidazol-1-yl)-N-(6-(5,6-dihydrocyclopenta[d][1,2,3]triazol-1 (4H)-yl)pyridin-2-yl)-2-methoxybenzamide] | 0 | 
O=C(Nc1cccc(-n2nnc3c2CCCC3)n1)c1cc(-n2cnc(C3CC3)c2)ccc1OC1CC1 [Example 23, 2-cyclopropoxy-5-(4-cyclopropyl-1H-imidazol-1-yl)-N-(6-(4,5,6,7-tetrahydro-1H-benzo[d][1,2,3]triazol-1-yl)pyridin-2-yl)benzamide] | 38 | 
Cc1cc(OC(C)C)c(C(=O)Nc2cccc(-n3nnc4c3CCC4)n2)cc1-n1cnc(C2CC2)c1 [Example 12, 5-(4-cyclopropyl-1H-imidazol-1-yl)-N-(6-(5,6-dihydrocyclopenta[d][1,2,3]triazol-1 (4H)-yl)pyridin-2-yl)-2-isopropoxy-4-methylbenzamide] | 0 | 
COc1cc(C)c(-n2cnc(C3CC3)c2)cc1C(=O)Nc1cccc(-n2nnc3c2CCC3)n1 [Example 8, 5-(4-cyclopropyl-1H-imidazol-1-yl)-N-(6-(5,6-dihydrocyclopenta[d][1,2,3]triazol-1 (4H)-yl)pyridin-2-yl)-2-methoxy-4-methylbenzamide] | 0 | 
Cc1cc(OC(F)F)c(C(=O)Nc2cccc(-n3nnc4c3CCC4)n2)cc1-n1cnc(C2CC2)c1 [Example 14, 5-(4-cyclopropyl-1H-imidazol-1-yl)-2-(difluoromethoxy)-N-(6-(5,6-dihydrocyclopenta[d][1,2,3]triazol-1 (4H)-yl)pyridin-2-yl)-4-methylbenzamide] | 1 | 
Cc1cc(OC(F)F)c(C(=O)Nc2cccc(-n3nnc4c3CCCC4)n2)cc1-n1cnc(C2CC2)c1 [Example 15, 5-(4-cyclopropyl-1H-imidazol-1-yl)-2-(difluoromethoxy)-4-methyl-N-(6-(4,5,6,7-tetrahydro-1H-benzo[d][1,2,3]triazol-1-yl)pyridin-2-yl)benzamide] | 8 | 
COc1cc(C)c(-n2cnc(C3CC3)c2)cc1C(=O)Nc1cccc(-n2nnc3c2CCCC3)n1 [Example 9, 5-(4-cyclopropyl-1H-imidazol-1-yl)-2-methoxy-4-methyl-N-(6-(4,5,6,7-tetrahydro-1H-benzo[d][1,2,3]triazol-1-yl)pyridin-2-yl)benzamide] | 0 | 
O=C(Nc1cccc(-n2nnc3c2CCCC3)n1)c1cc(-n2cnc(C3CC3)c2)ccc1OCC(F)(F)F [Example 21, 5-(4-cyclopropyl-1H-imidazol-1-yl)-N-(6-(4,5,6,7-tetrahydro-1H-benzo[d][1,2,3]triazol-1-yl)pyridin-2-yl)-2-(2,2,2-trifluoroethoxy)benzamide] | 16 | 

From US20260138969A1 (Korea Research Institute of Chemical Technology, priority 2023, published 2026)
